Results as given in US20110288033A1, “Disulfide Compounds for Phototherapy” (Mallinckrodt Inc., priority 2010, published 2011).

What was measured:
[1] = UV spectrum in DMSO; assay type: physicochemical
[2] = system: human myeloid leukemia U937 cell line; assay type: cell-based; conditions: 0, 2.5, 5 and 10 μM; light 0, 10, 20 minutes
Procedure: A general procedure is carried out for measuring cell viability upon exposure of cancer cells to a disulfide photosensitizer and light. The disulfide photosensitizer evaluated is a commercially available compound having formula (FX13): […]
Compound (FX13) was purchased from Sigma-Aldrich (Cat #158194). […] Preparation of compound (FX13) is known and can be found, for example, in Rath, C. Derivatives of pyridine. XII. Mercaptans and sulfonic acids of pyridine. Justus Liebigs Annalen der Chemie 1931, 487, 105-119, which is hereby incorporated by reference. Some properties of compound (FX13) are known and can be found, for example, in Grassetti, D. R.; Brokke, M. E.; Murray, J. F., Jr. The effect of some sulfur-containing pyridine derivatives on the carbohydrate metabolism of ehrlich ascites tumor. J. Med. Chem. 1965, 8, 753-756, which is hereby incorporated by reference. The cell viability analysis is carried out using a human myeloid leukemia U937 cell line by the standard WST-1 assay. […]
The disulfide photosensitizer is dissolved in DMSO at an initial concentration of about 8 mM and diluted with water to the final desired value such that amount of DMSO exposed to the cells is kept […]. […] The viability of cells is assessed after 24 hours following light exposure. […] The number of viable cells is determined and percent viability is determined: […]

Question: For `O=[N+]([O-])c1ccc(SSc2ccc([N+](=O)[O-])cn2)nc1` [FX13], which “absorption λmax” value [1] is on record?
Answer: 323 nm

Question: And the “change in cell viability with photosensitizer and light (FIG. 5)” value [2]?
Answer: concentration-dependent and light exposure time-dependent decrease in cell viability
